The values below are quoted from earlier work in patent US20130089529A1, “AGENT FOR OSTEOGENESIS USING SUBSTANCE-P AND PREPARATION PROCESS THEREOF” (UNIVERSITY-INDUSTRY COOPERATION GROUP OF KYUNGHEE UNIVERSITY, priority 2010, published 2013).

Data set [1] has as its system CD29+ MSCs. The following applies: mice without wound, intravenous injection of Substance-P, versus non-injected mice; previous study KR 10-2006-0037176.
In data set [2] the test system is MSCs. The settings on record: in vitro 3-D collagen gel; by inducing matrix-degrading enzymes and inhibiting their inhibitors; previous study KR 10-2006-0037176.

As for Substance-P, in data set [1], the “CD29+ MSCs mobilized into peripheral blood, relative to non-injected mice” value is given as “approximately 15 times”. In data set [2], the “Migration of MSCs in 3-D collagen gel” value is given as “stimulated migration of MSCs”.
